In patent US10206862B2, “Supplement to support healthy hair, skin, and nails” (priority 2016, dated 2019):

Legend:
keratinocytes = test: Reduction in ATP depletion after peroxide stress (CellTiter-Glo); type: cell-based; conditions: 1 hour treatment, net luminescence = treatment counts minus vehicle control counts
Procedure: Hydrogen peroxide is a well-known ROS and is commonly used as a model to analyze the effects of various ROS. In this test, keratinocytes were cultured (passage <8) in T150 flasks using EpiLife® medium (Calcium Free and Phenol Red Free, supplemented with penicillin/streptomycin and keratinocytes growth supplement, Invitrogen™ cat# MEPICFPRF500). The keratinocytes were then plated in 24 well plates, 40,000 cells/well, 1 ml media. After 24 hours, the keratinocytes were treated with organic astaxanthin and astaxanthin in combination with Digestive Support Blend (see Example 1 above), Stress and Energy Support Blend (see Example 1 above), Reishi, or biotin for 1 hour. The keratinocytes were washed in PBS and ATP levels were measured using the CellTiter-Glo® Luminescent Cell Viability Assay (available from Promega, cat# G7571/2/3) per manufacturer's directions. Luminescence was measured on a SpectraMax® M3 (available from Molecular Devices, Sunnyvale, Calif., USA). Net luminescence (or net ATP) is calculated by subtracting the luminescence counts from the vehicle control from the luminescence counts from the treatment groups.

[1] = system: Antioxidant Response Element (ARE); test: ARE reporter assay (ARE-32 luciferase reporter cell line); type: cell-based, rat; conditions: ARE32 (MCF7) luciferase reporter cells, 24 hours treatment; Nrf2 antioxidant response activation
Procedure: ARE activation was quantitated using the ARE-32 reporter cell line available from CXR-Biosciences as described in the ARE Assay below. ARE32 is a stable MCF7 cell line containing pGL8x-ARE (8 copies of the rat GST ARE linked to the luciferase gene) and pCDNA3.1, which contains the neomycin selectable marker. Selection was performed in the presence of G418 and resistant clones were isolated. Clones were screened for induction of luciferase in response to tBHQ (tert-Butylhydroquinone). The ARE32 cells are maintained routinely in the DMEM (phenol red free) containing: 10% FBS, 50 units/ml penicillin & 50 μg/ml streptomycin, 0.8 mg/ml G418. […] Cells were frozen in medium that contains 90% FBS and 10% dimethyl sulfoxide (DMSO). In a 96 well-plate, seed 1×10^4 cells/well in 100 μl DMEM containing 50 units/ml penicillin, 50 μg/ml streptomycin, 0.8 mg/ml G418 and 10% FBS. Next, incubate the cells at 37° C. in a 5% CO2 incubator for 24 hrs, and then replace the medium with 100 μl fresh media. Treat with test compounds at 2 μl per well, positive control was 25 μM TBHQ. (10 mM tBHQ of stock solution freshly prepared in DMSO). Add 100 μl of media after treatment for a final assay volume of 200 μL. Incubate the cells at 37° C. in CO2 incubator for another 24 hours. […]

[2] = system: PGE2 release from UVB stressed keratinocytes; test: PGE2 assay in UVB stressed keratinocytes; type: cell-based; conditions: telomerized human keratinocytes, UVB 15 mJ/cm^2, 24 hours treatment; PGE2 (pg/mL) normalized to ATP; FIG. 3
Procedure: Telomerized human keratinocytes are propgated in EpiLife® Media in CO2-incubator at 37° C. in T150 flasks (available from Corning®, Corning, N.Y., USA). […] The plates were incubated another 2 days until cell confluency reaches >80%. At this point, the cells were irradiated with a Bio-Sun™ UV with UVB light for a dose of 15 mJ/cm^2. The media was then switched with fresh medium prepared with the treatments. The cells were then incubated for 24 hours before harvest. At harvest, the media supernatant was collected and transferred to a deep well plate and frozen in −80° C. for later determination of PGE2 levels. PGE2 levels were measured from the media supernatants using the PGE2 Assay kit (available from Cisbio™, Bedford, Mass.) per manufacturer's directions. PGE2 levels here were normalized to the ATP measurements such that the final PGE2 values were recorded as PGE2 (pg/mL)/ATP level treatment compared to control. Typically, each data point is the average of 4 replicates.

Compound	Net ATP (keratinocytes)	ARE - Fold Over Control [1]	PGE2 release from keratinocytes [2]
O=C(O)CCCC[C@@H]1SC[C@@H]2NC(=O)N[C@@H]21 [Biotin]	947	1.71 Fold Over Control	reduce PGE2
CC1=C(/C=C/C(C)=C/C=C/C(C)=C/C=C/C=C(C)/C=C/C=C(C)/C=C/C2=C(C)C(=O)[C@@H](O)CC2(C)C)C(C)(C)C[C@H](O)C1=O [Organic Astaxanthin, Astaxanthin]	1096	2.65 Fold Over Control	reduce PGE2
